{"source": "patent US6815195B2", "about": "“5-substituted hydantoin racemase, DNA coding for the racemase, and processes for producing optically active amino acids” (Ajinomoto Co. Inc., priority 2000, dated 2004)", "key": {"[1]": {"test_system": "HRase", "assay": "Racemization of BH by purified HRase (substrate recognition)", "type": "biochemical, Microbacterium liquefaciens AJ3912", "details": "0.3 mg/ml purified HRase, 37° C., pH 8.0", "experimental": "(§1) A reaction solution containing 0.3 mg/ml purified HRase, 0.12 g/dl D- or L-BH, 50 mM KPB (pH 8.0) and 5 mM DTT was incubated at 37° C. and sampled with time to quantify the amount of BH by HPLC. As the control, the same experiment was performed in an experimental group not containing the enzyme, to quantify the spontaneous racemization of BH."}, "[2]": {"test_system": "HRase", "assay": "Effect of various reagents such as enzyme inhibitors on HRase activity (residual activity)", "type": "biochemical, Microbacterium liquefaciens AJ3912", "details": "for effect of reagent on HRase activity (in words): purified HRase pre-incubated with reagent; for Residual Activity (%): relative to activity without reagent (100%), pre-incubation 0° C. 30 min pH 8.0, reaction pH 8.0, 30° C., 30 min, concentration in reaction: NEM 5 mM, CuSO4 2.5 mM, IAA 10 mM, EDTA 10 mM, Methanol 10% (v/v)", "experimental": "(§2) Specifically, a reaction solution containing 120 mg/dl L- or D-benzyl hydantoin (BH), 50 mM dibasic potassium phosphate buffer (KPB) (pH 8.0), 5 mM dithiothreitol (DTT) and an HRase enzyme solution was incubated at 37° C. for 30 minutes, and the reaction was stopped by adding a 9-fold excess volume of 1.1 mM CuSO4 and 11.1 mM H3PO4 solution. The precipitates were removed by centrifugation at 20,000 g×10 minutes, and the amount of racemized BH was quantitatively determined by HPLC to estimate the racemization activity. The enzyme activity causing racemization of 1 μmol BH per minute under these conditions was defined as 1 U of the enzyme activity.\n1.5 μg/ml purified HRase was pre-incubated at 0° C. for 30 minutes at pH 8.0 with 25 mM DTT, 25 mM N-ethylmaleimide (NEM), 12.5 mM CuSO4, 50 mM monoiodoacetic acid (IAA), 50 mM EDTA or 50% (v/v) methanol. As the enzyme source, each of these mixtures was reacted at pH 8.0, at 30° C. for 30 minutes to measure the residual activity, and the susceptibility of the HRase to each inhibitor was determined. The concentration of each of the enzyme and the inhibitor during the reaction was about ⅕ relative to the concentration during the pre-incubation.\nThe residual activity was shown as relative activity to the activity (100%) in the absence of the reagent (see Table 2)."}, "[3]": {"test_system": "HRase", "assay": "Racemization of optically active 5-substituted hydantoin compounds other than BH (D-amino acid formation with AJ 11220 and HRase, TLC)", "type": "biochemical, Microbacterium liquefaciens AJ3912", "details": "1 g/dl substrate, 1.3 μg/ml purified HRase, 2 g/dl wet AJ 11220, 37° C., 22 hours, optical resolution TLC", "experimental": "The ability of the present HRase to catalyze racemization of optically active 5-substituted hydantoin compounds other than BH was examined. The formation of D-amino acid from L-5-substituted hydantoin by a combination of Pseudomonas sp. AJ 11220 and HRase was confirmed in the same manner as in Example 8.\n1 g/dl 5-substituted hydantoin of various kinds, together with 1.3 μg/ml purified HRase, 0.1 M KPB (pH 8.0), 0.5 mM CoCl2 and 2 g/dl wet AJ 11220, was subjected to stationary reaction at 37° C. for 22 hours. Each hydantoin consisted of D- and L-isomers as the substrate, and it was confirmed that D-amino acid was formed from the D-isomer substrate in the absence of HRase, and also that D-amino acid was not formed from the L-isomer substrate in the absence of HRase, and then it was judged that when D-amino acid was formed from the L-isomer substrate in the presence of HRase, the substrate was recognized. The formation of D-amino acid was qualitatively estimated by development with optical resolution TLC (MERCK, HPTLC CHIR) with methanol:H2O:acetonitrile=1:1:4."}, "[4]": {"assay": "HRase activity measurement: racemization of BH quantified by HPLC (specific activity of purified HRase)", "type": "biochemical, Microbacterium liquefaciens AJ3912", "experimental": "Measurement of the HRase activity of the HRase of the present invention can be carried out by measuring a change in the optical rotation as the degree of racemization of the optically active D- or L-5-substituted hydantoin compound as the substrate or by high performance liquid chromatography (HPLC) using an optical resolution column.\nas §2\nThe quantitative analysis of optically active BH by analysis in HPLC was conducted by use of Daicel Chemical CHIRALPAK WH 0.46 cmφ×25 cm. The analysis conditions are as follows:\nas §1"}, "[5]": {"assay": "Production of D-Phe from DL-BH or L-BH by a combination of Agrobacterium sp. AJ11220 and HRase", "type": "biochemical", "details": "reaction 30 hours", "experimental": "0.5 g/dl (26 mM) DL-BH or L-BH, together with 0.84 μg/ml purified HRase, 0.1 M KPB (pH 8.0), 0.5 mM CoCl2 and 2 g/dl wet AJ11220 microorganism, was subjected to stationary reaction at 30° C. Oxygen was previously removed from the reaction solution by replacing it by nitrogen. The reaction solution was sampled with time and analyzed by HPLC to quantify the formed D-Phe."}, "[6]": {"details": "calculated from initial reaction rate, 37° C., pH 8.0, 5 mM DTT"}}, "note": "Entries after “also recorded” stand apart in the source; their conditions may differ.", "data": [{"molecule": "O=C1NC(=O)[C@H](Cc2ccccc2)N1", "note": "[L-BH, L-benzyl hydantoin]", "values": [{"measurement": "recognition as substrate by HRase", "setting": "[1]", "result": "recognized"}]}, {"molecule": "O=C1NC(=O)[C@@H](Cc2ccccc2)N1", "note": "[D-BH, D-benzyl hydantoin]", "values": [{"measurement": "recognition as substrate by HRase", "setting": "[1]", "result": "recognized"}]}, {"molecule": "O[C@H](CS)[C@H](O)CS", "note": "(racemic) [DTT, dithiothreitol]", "values": [{"measurement": "effect of reagent on HRase activity (in words)", "setting": "[2]", "result": "activated"}]}, {"molecule": "O=C(O)CI", "note": "[IAA, monoiodoacetic acid]", "values": [{"measurement": "effect of reagent on HRase activity (in words)", "setting": "[2]", "result": "strongly inhibited"}, {"measurement": "effect of reagent on HRase activity (in words)", "setting": "[2]; listed as iodoacetic acid", "result": "significantly inhibited"}, {"measurement": "Residual Activity (%)", "setting": "[2]", "result": 0, "unit": "%"}]}, {"molecule": "CCN1C(=O)C=CC1=O", "note": "[NEM, N-ethylmaleimide]", "values": [{"measurement": "effect of reagent on HRase activity (in words)", "setting": "[2]", "result": "significantly inhibited; also recorded: strongly inhibited"}, {"measurement": "Residual Activity (%)", "setting": "[2]", "result": 0, "unit": "%"}]}, {"molecule": "CO", "note": "[Methanol, methanol]", "values": [{"measurement": "effect of reagent on HRase activity (in words)", "setting": "[2]", "result": "did not influence"}, {"measurement": "Residual Activity (%)", "setting": "[2]", "result": 99, "unit": "%"}]}, {"molecule": "O=C1NC(=O)[C@H](Cc2c[nH]c3ccccc23)N1", "note": "[L-5-indolyl methyl hydantoin]", "values": [{"measurement": "racemization by HRase (D-amino acid formed from L-isomer substrate, qualitative)", "setting": "[3]", "result": "racemized"}]}, {"molecule": "CC(C)C[C@@H]1NC(=O)NC1=O", "note": "[L-5-isobutyl hydantoin]", "values": [{"measurement": "racemization by HRase (D-amino acid formed from L-isomer substrate, qualitative)", "setting": "[3]", "result": "racemized"}]}, {"molecule": "O=C1NC(=O)[C@H](Cc2ccc(O)cc2)N1", "note": "[L-5-(p-hydroxybenzyl) hydantoin]", "values": [{"measurement": "racemization by HRase (D-amino acid formed from L-isomer substrate, qualitative)", "setting": "[3]", "result": "racemized"}]}, {"molecule": "O=C(O)CN(CCN(CC(=O)O)CC(=O)O)CC(=O)O", "note": "[EDTA, ethylenediaminetetraacetic acid]", "values": [{"measurement": "effect of reagent on HRase activity (in words)", "setting": "[2]", "result": "no significant inhibitory effect; also recorded: minimally inhibited"}, {"measurement": "Residual Activity (%)", "setting": "[2]", "result": 86, "unit": "%"}]}, {"molecule": "O=S(=O)([O-])[O-].[Cu+2]", "note": "[CuSO4]", "values": [{"measurement": "effect of reagent on HRase activity (in words)", "setting": "[2]; listed as Cu^2+", "result": "significantly inhibited"}, {"measurement": "effect of reagent on HRase activity (in words)", "setting": "[2]; listed as copper ion", "result": "strongly inhibited"}, {"measurement": "Residual Activity (%)", "setting": "[2]", "result": 0, "unit": "%"}]}, {"molecule": "HRase: 5-substituted hydantoin racemase from Microbacterium liquefaciens AJ3912, amino acid sequence SEQ ID NO:2 (protein) MRIHVINPNSSVDLTDAVAEAARSVVSPGTTITAVNPSKGPTVIEGSYDEVLATYHLVEEVRRAEREDRPDAYVIACFGDPGLDAVRELTDRPVVGIAEAAIQMTSFVAASFSIVSILPRVRKHLHELVHRAGATDRLASLKLPDLGVLAFHEDEAAAFETLRRVAGEAVREDGAESIVLGCAGMAGFARQLSEELGVPVIDAVEAACRVAESLVALGYRTSKANTYQAPTEKQYL", "values": [{"measurement": "specific activity of the purified HRase", "setting": "[4]; after purification (Example 1), 1 U = racemization of 1 μmol BH per minute", "result": 79, "unit": "U/mg"}, {"measurement": "specific activity of the purified HRase, formation of D-BH from L-BH", "setting": "[4]; [6]", "result": 100, "unit": "U/mg"}, {"measurement": "specific activity of the purified HRase, formation of L-BH from D-BH", "setting": "[4]; [6]", "result": 79, "unit": "U/mg"}, {"measurement": "amount of D-Phe formed from DL-BH", "setting": "[5]; HRase added (0.84 μg/ml), 26 mM DL-BH, 2 g/dl wet AJ11220, 30° C.", "result": 24.6, "unit": "mM"}, {"measurement": "amount of D-Phe formed from L-BH", "setting": "[5]; HRase added (0.84 μg/ml), 26 mM L-BH, 2 g/dl wet AJ11220, 30° C.", "result": 24.6, "unit": "mM"}, {"measurement": "molar yield of D-Phe from DL-BH", "setting": "[5]; HRase added, 26 mM DL-BH", "result": 94, "unit": "%"}, {"measurement": "molar yield of D-Phe from L-BH", "setting": "[5]; HRase added, 26 mM L-BH", "result": 94, "unit": "%"}]}]}
